# Laboratory results published in patent US6645983B1, “Pharmaceutical compositions comprising 4-quinolones for treating cancers” (Laboratoire L. Lafon, priority 1999, dated 2003).
# Like-named read-outs stand apart in the source and are kept apart here.
# Legend:
# A-427 = test: MTT test, cytotoxic activity on non-clonogenic cell lines; type: cell-based; conditions: Homo sapiens, 10^−5 M, mean value
# In short: (§1)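 Compounds span 10^−5 to 10^−10 M, with solvent-treated wells as control, and the formazan is quantified by absorbance after DMSO solubilization.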
# A549 = test: as above; type: cell-based; conditions: Homo sapiens, 10^−5 M, mean value
# In short: as §1
# HCT-15 = test: as above; type: cell-based; conditions: Homo sapiens, mean value
# In short: as §1
# LoVo = test: as above; type: cell-based; conditions: Homo sapiens, 10^−5 M, mean value
# In short: as §1
# MCF7 = test: as above; type: cell-based; conditions: Homo sapiens, 10^−5 M, mean value
# In short: as §1
# PC-3 = test: as above; type: cell-based; conditions: Homo sapiens, 10^−5 M, mean value
# In short: as §1
# T-47D = test: as above; type: cell-based; conditions: Homo sapiens, T47D, 10^−5 M, mean value
# In short: as §1
# U-373MG = test: as above; type: cell-based; conditions: Homo sapiens, U373 MG, 10^−5 M, mean value
# In short: as §1
# U-87MG = test: as above; type: cell-based; conditions: Homo sapiens, 10^−5 M, mean value
# In short: as §1
# SW1088 = test: as above; type: cell-based; conditions: Homo sapiens, 10^−5 M, mean value
# In short: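 Human astrocytoma SW1088 cells seeded, grown 24 h at 37° C, 5% CO2, then exposed to compounds at 10^−5 to 10^−10 M versus solvent control. Viability by MTT reduction: 3 h MTT incubation, formazan dissolved in DMSO and read by spectrophotometry.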
# J82 = test: as above; type: cell-based; conditions: Homo sapiens, 10^−5 M, mean value
# In short: (§2)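 Human bladder cancer lines were seeded at 20 000–50 000 cells/ml and, after 24 h, exposed to compounds at 10^−5 to 10^−10 M against a solvent control. Formazan was dissolved in DMSO and viability was read by spectrophotometric optical density.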
# T24 = test: as above; type: cell-based; conditions: Homo sapiens, T-24, 10^−5 M, mean value
# In short: as §2
# [1] = Determination of the maximum tolerated dose (MTD); conditions: B6D2F1/Jico, mouse, in vivo, ip; single intraperitoneal administration, doses 2.5 to 160 mg/kg, survival over 14 days
# In short: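 Mice were 4- to 6-week-old B6D2F1/Jico. They received a single intraperitoneal dose of 2.5 to 160 mg/kg, and survival and body weight were followed for 14 days. MTD is given in mg/kg and is capped at 160 mg/kg by default.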
# [2] = 72 hours of incubation, control condition = 100%, read-out: mean optical density as percentage of control, A-427
# [3] = 72 hours of incubation, control condition = 100%, read-out: mean optical density as percentage of control, A549
# [4] = 10^−5 M, 72 hours of incubation, control condition = 100%, read-out: mean optical density as percentage of control, HCT-16
# [5] = 72 hours of incubation, control condition = 100%, read-out: mean optical density as percentage of control, LoVo
# [6] = 72 hours of incubation, control condition = 100%, read-out: mean optical density as percentage of control, MCF7
# [7] = 72 hours of incubation, control condition = 100%, read-out: mean optical density as percentage of control, PC-3
# [8] = 72 hours of incubation, control condition = 100%, read-out: mean optical density as percentage of control, T-47D
# [9] = 72 hours of incubation, control condition = 100%, read-out: mean optical density as percentage of control, U-373MG
# [10] = U-87 MG, 72 hours of incubation, control condition = 100%, read-out: mean optical density as percentage of control, U-87MG
# [11] = 72 hours of incubation, control condition = 100%, read-out: mean optical density as percentage of control, SW1088
# [12] = 72 hours of incubation, control condition = 100%, read-out: mean optical density as percentage of control, J82
# [13] = 72 hours of incubation, control condition = 100%, read-out: mean optical density as percentage of control, T24
# [14] = 72 hours incubation, MTT, read-out: mean optical density, expressed as percentage relative to the mean optical density under the control condition (100%)
# [15] = HCT-16, 10^−5 M, 72 hours incubation, MTT, read-out: mean optical density, expressed as percentage relative to the mean optical density under the control condition (100%)
# [16] = T-47D, 72 hours incubation, MTT, read-out: mean optical density, expressed as percentage relative to the mean optical density under the control condition (100%)
# [17] = U-373MG, 72 hours incubation, MTT, read-out: mean optical density, expressed as percentage relative to the mean optical density under the control condition (100%)
# [18] = U-87MG, 72 hours incubation, MTT, read-out: mean optical density, expressed as percentage relative to the mean optical density under the control condition (100%)
# [19] = T24, 72 hours incubation, MTT, read-out: mean optical density, expressed as percentage relative to the mean optical density under the control condition (100%)
Compound,viability at 10 µM (A-427; [2]),viability at 10 µM (A549; [3]),viability at 10 µM (HCT-15; [4]),viability at 10 µM (LoVo; [5]),viability at 10 µM (MCF7; [6]),viability at 10 µM (PC-3; [7]),viability at 10 µM (T-47D; [8]),viability at 10 µM (U-373MG; [9]),viability at 10 µM (U-87MG; [10]),viability at 10 µM (SW1088; [11]),viability at 10 µM (J82; [12]),viability at 10 µM (T24; [13]),MTD at 14 day [1],further results
"CCOC(=O)Cn1cc(-c2ccc(OC)cc2)c(=O)c2c(OC)ccc(OC)c21 [CRL8381, Ethyl 2-[5,8-dimethoxy-3-(4-methoxyphenyl)-4-oxo-1,4-dihydro-1-quinolinyl]acetate]",84.2%,73.8%,90.5%,105%,67.2%,79.1%,92.6%,91.8%,48.1%,55.9%,90.9%,83.2%,> 160 mg/kg,
COc1ccc(-c2cn(C)c3c(OC)ccc(OC)c3c2=O)cc1 [CRL8371],30.8%,42.9%,25.2%,45.6%,45.6%,54.2%,49.3%,42.8%,58.7%,40.8%,76.3%,52.2%,40 mg/kg,
"COc1ccc(-c2cn(CCCC#N)c3cc(OC)ccc3c2=O)cc1 [CRL8470, 4-[7-Methoxy-3-(4-methoxyphenyl)-4-oxo-1,4-dihydro-1-quinolinyl]butanenitrile]",,,,,,,,,,,,,> 160 mg/kg,viability at 10 µM (A-427; [14]): 103%; viability at 10 µM (A549; [14]): 80.2%; viability at 10 µM (HCT-15; [15]): 95.5%; viability at 10 µM (LoVo; [14]): 86.6%; viability at 10 µM (MCF7; [14]): 92.8%; viability at 10 µM (PC-3; [14]): 94%; viability at 10 µM (T-47D; [16]): 88.8%; viability at 10 µM (U-373MG; [17]): 104%; viability at 10 µM (U-87MG; [18]): 97.2%; viability at 10 µM (SW1088; [14]): 92.5%; viability at 10 µM (J82; [14]): 85.6%; viability at 10 µM (T24; [19]): 101%
"COc1ccc(-c2cn(C)c3cc(OC)cc(N4CCCCC4)c3c2=O)cc1 [CRL8425, 7-Methoxy-3-(4-methoxyphenyl)-1-methyl-5-piperidino-1,4-dihydro-4-quinolinone]",81.9%,80.2%,78.9%,71%,102%,88.2%,97.3%,82.6%,92.6%,85.4%,71.9%,98.2%,> 160 mg/kg,
"CCc1ccc(OC)c2c1c(=O)c(-c1ccc(OC)cc1)cn2C [CRL8414, 5-Ethyl-8-methoxy-3-(4-methoxyphenyl)-1-methyl-1,4-dihydro-4-quinolinone]",82.2%,71.8%,83.4%,84.2%,104%,94.3%,96.2%,81.7%,81.2%,94.4%,110%,97.5%,> 160 mg/kg,
"CC(=O)Oc1ccc(-c2cn(C)c3c(OC(C)=O)ccc(OC(C)=O)c3c2=O)cc1 [CRL8460, 5,8-Diacetoxy-3-[4-(acetoxy)phenyl]-1-methyl-1,4-dihydro-4-quinolmone acetate]",,,,,,,,,,,,,> 160 mg/kg,viability at 10 µM (A-427; [14]): 24.9%; viability at 10 µM (A549; [14]): 43.1%; viability at 10 µM (HCT-15; [15]): 53.7%; viability at 10 µM (LoVo; [14]): 25.5%; viability at 10 µM (MCF7; [14]): 35%; viability at 10 µM (PC-3; [14]): 35.2%; viability at 10 µM (T-47D; [16]): 56.2%; viability at 10 µM (U-373MG; [17]): 52.2%; viability at 10 µM (U-87MG; [18]): 71.5%; viability at 10 µM (SW1088; [14]): 65.7%; viability at 10 µM (J82; [14]): 45.7%; viability at 10 µM (T24; [19]): 14.2%
"COc1ccc(-c2cn(C)c3ccc(OC)cc3c2=O)cc1 [CRL8378, 6-Methoxy-3-(4-methoxyphenyl)-1-methyl-1,4-dihydro-4-quinolinone]",72.3%,91%,105%,107%,93.5%,100%,110%,98.1%,73%,108%,99.6%,89.2%,> 160 mg/kg,
"COc1ccc(-c2cn(CCCN(C)C)c3cc(OC)cc(OC)c3c2=O)cc1 [CRL8357, N-[3-(Dimethylamino)propyl]-5,7-dimethoxy-3-(4-methoxyphenyl)-1,4-dihydro-4-quinolinone]",59.5%,73.3%,79.5%,97.9%,95.8%,85.6%,94.1%,96%,84.4%,69.6%,84.7%,99%,80 mg/kg,
"COc1ccc(-c2cn(CC#N)c3c(OC)ccc(OC)c3c2=O)cc1 [CRL8413, [5,8-Dimethoxy-3-(4-methoxyphenyl)-4-oxo-1,4-dihydro-1-quinolinyl]acetonitrile]",73.3%,48.7%,65.9%,85.6%,67.2%,63.4%,112%,66.4%,56%,83.7%,88.4%,71.8%,> 160 mg/kg,
"CCN(CC)c1cc(OC)cc2c1c(=O)c(-c1ccc(OC)cc1)cn2C [CRL8437, 5-Diethylamino-7-methoxy-3-(4-methoxyphenyl)-1-methyl-1,4-dihydro-4-quinolinone]",,,,,,,,,,,,,> 160 mg/kg,viability at 10 µM (A-427; [14]): 108%; viability at 10 µM (A549; [14]): 102%; viability at 10 µM (HCT-15; [15]): 110%; viability at 10 µM (LoVo; [14]): 105%; viability at 10 µM (MCF7; [14]): 97.7%; viability at 10 µM (PC-3; [14]): 94.1%; viability at 10 µM (T-47D; [16]): 92.1%; viability at 10 µM (U-373MG; [17]): 93.2%; viability at 10 µM (U-87MG; [18]): 99.4%; viability at 10 µM (SW1088; [14]): 99.7%; viability at 10 µM (J82; [14]): 98.7%; viability at 10 µM (T24; [19]): 93.1%
"CCc1cc(OC)cc2c1c(=O)c(-c1ccc(OC)cc1)cn2C [CRL8393, 5-Ethyl-7-methoxy-3-(4-methoxyphenyl)-1-methyl-1,4-dihydro-4-quinolinone]",23.7%,93%,41.8%,84.6%,89.7%,87.3%,68.8%,74.7%,89.9%,82.8%,97.9%,95.3%,> 160 mg/kg,
